Assay results from US10653617B2, “Compositions of additives to ginger-curcumin to facilitate growth of fibroblasts and collagen” (priority 2016, dated 2020).

How the values were obtained:
Human dermal fibroblasts [1] = assay: Fibroblast cytotoxicity assay; type: cell-based; settings: 72 hours; for concentration up to which non-toxic (all concentrations evaluated): agent tested individually, KBM, 1.5 mM calcium; for growth-inhibition/cytotoxicity of the individual agent: agent tested individually over a wide range of concentrations
Description: Human dermal fibroblasts were isolated from skin biopsies and grown in monolayer culture using DMEM supplemented with 10% fetal bovine serum as culture medium. Growth was at 37° C. in a humidified atmosphere containing 5% CO2 and 95% air. For experimental studies, cells were plated at 5×10^4 cells per well in wells of a 24-well culture dish in the same culture medium. One day later, cells were washed and the DMEM culture medium was replaced with KBM. Human dermal fibroblasts were treated with culture medium (KBM) supplemented with a concentration of calcium (1.5 mM) that supports fibroblast survival on its own. Reagents to be tested for cytotoxicity and/or growth inhibition were included in the culture medium and the cells incubated for 72 hours.

Human dermal fibroblasts [2] = settings: cited from earlier work

Row | Molecule | concentration up to which non-toxic (all concentrations evaluated) (Human dermal fibroblasts [1]) | growth-inhibition/cytotoxicity of the individual agent (Human dermal fibroblasts [1]) | also measured
1 | hyaluronan | ≤ 20000 ng/mL | – | –
2 | CS(C)(=O)=O [MSM, dimethyl sulfone] | – | levels that produced growth-inhibition/cytotoxicity were achieved | –
3 | O=C1O[C@H]([C@@H](O)CO)C(O)=C1O [L-ascorbic acid] | up to 200 μg/mL | – | –
4 | CCCCCCCCCCCCOS(=O)(=O)[O-].[Na+] [SLS, sodium lauryl sulfate] | – | levels that produced growth-inhibition/cytotoxicity were achieved | –
5 | COc1cc(/C=C/C(=O)CC(=O)/C=C/c2ccc(O)c(OC)c2)ccc1O [curcumin] | – | levels that produced growth-inhibition/cytotoxicity were achieved | –
6 | CC1=C(/C=C/C(C)=C/C=C/C(C)=C/C(=O)O)C(C)(C)CCC1 [ATRA, all-trans retinoic acid] | – | – | concentrations that are effective in this assay (Human dermal fibroblasts [2]): 1 to 10 µM
